Measurements from patent publication US20180171411A1, “GFRalpha1 AS A BIOMARKER FOR CISPLATIN-INDUCED CHEMORESISTANCE AND METASTASIS” (THE BOARD OF REGENTS OF THE UNIVERSITY OF TEXAS SYSTEM, priority 2015, published 2018).

System: LC3 puncta in MG-63 cells
Assay: LC3 puncta formation (mRFP-GFP-LC3 reporter)
Format: cell-based, human
Details: for LC3 puncta formation: cisplatin 20 μM, 24 hr
Description: FIG. 3. GFRα1-induced autophagy enhances the chemoresistance of osteosarcoma cells induced by cisplatin. (a) Control and GFRα1-deficient MG-63 cells were transiently transfected with a mRFP-GFP tandem fluorescent-tagged LC3 (mRFP-GFP-LC3) vector and then treated with cisplatin (20μM) for 24 hr. Left, representative images of RFP-LC3 and GFP-LC3 puncta. Scale bar, 20 μm. Right, quantitative analysis of the number of yellow puncta and the number of RFP-LC3 puncta in the combined images. The values are represented as a mean±s.d.m. (n=3). ** denotes p<0.05 by t-test. (b) Control and GFRα1-deficient MG-63 cells were treated with cisplatin (20 μM) for 24 hr and then stained with acridine orange. Top, representative images of cells stained with acridine orange. Scale bar, 20 μm. Bottom, quantitative analysis of the number of AVOs. The values are represented as a mean±s.d.m. (n=3). ** denotes p<0.05 by t-test. (c) Control and GFRα1-deficient MG-63 cells were treated with cisplatin (20 μM) for 24 hr and then analyzed by TEM. Top, representative images of autophagic vacuoles (yellow arrows) detected after cisplatin treatment in control MG-63 cells. Scale bar, 100 nm. Bottom, quantitative analysis of the number of autophagic vacuoles. The values are represented as a mean±s.d.m. (n=3). ** denotes p<0.05 by t-test. (d) Immunoblot analysis of control and GFRα1-overexpressing osteosarcoma cell lysates with antibodies specific for GFRα1, LC3 and β-actin. GFRα1-overexpressing MG-63 cells were treated with DMSO, 3-MA (10 μM) or Baf (100 nM). (e) Quantitative analysis of the number of yellow puncta and the number of RFP-LC3 puncta in control and GFRα1-overexpressing MG-63 cells. Control and GFRα1-overexpressing MG-63 cells were transiently transfected with an RFP-GFP tandem fluorescent-tagged LC3 (mRFP-GFP-LC3) and then treated with cisplatin (20 μM) for 24 hr. […] (g) Control and GFRα1-overexpressing MG-63 cells were treated with cisplatin (20 μM) for 24 hr and then stained with acridine orange. Top, representative images of cells stained with acridine orange. Scale bar, 20 μm. Bottom, quantitative analysis of the number of AVOs. The values are represented as a mean±s.d.m. (n=3). ** denotes p<0.05 by t-test. (h) Control and GFRα1-overexpressing MG-63 cells were treated with cisplatin (20 μM) for 24 hr and then analyzed by TEM. Top, representative images of autophagic vacuoles detected after cisplatin treatment in control and GFRα1-overexpressing MG-63 cells. Scale bar, 100 nm. Bottom, quantitative analysis of the number of autophagic vacuoles. The values are represented as a mean±s.d.m. (n=3). ** denotes p<0.05 by t-test. (i) Cell viability of GFRα1-overexpressing osteosarcoma cells after cisplatin treatment in the presence of autophagy inhibitors. Control or GFRα1-overexpressing MG-63 cells were cultured with DMSO, 3-MA or Baf, and then treated with cisplatin (20 μM) for 24 hr. Cell viability was measured using the WST-1 assay. The values are represented as a mean±s.d.m. (n=3). ** denotes p<0.05 by t-test. (j) Cell viability of GFRα1-overexpressing osteosarcoma cells after cisplatin treatment in the presence of Beclin 1 (20 nM) or HMGB1 (20 nM) […] siRNA. Control or GFRα1-overexpressing MG-63 cells were cultured with Beclin 1 or HMGB1 siRNA for 48 hr and then treated with cisplatin (20 μM) for 24 hr. Cell viability was measured using the WST-1 assay. The values are represented as a mean±s.d.m. (n=3). ** denotes p<0.05 by t-test. (k) The effect of GFRα1 deficiency or overexpression on colony formation in the presence of cisplatin (20 μM). Equal number (1×10^4 cells) of control (control shRNA), GFRα1-deficient (GFRα1 shRNA), control (empty vector), and GFRα1-overexpressing (GFRα1 expressing vector) MG-63 cells were plated. All of cell lines were incubated with cisplatin (20 μM) for 10 days. Colonies were stained by crystal violet for visualization. Left, representative images of colony formation. Right, quantitative analysis of the number of colonies and plating efficiency. […]

## Cn1cnc(N)c2ncnc1-2 [3-MA, 3-methyladenine]
MG-63 cells pretreated with 3-MA (10 mM) 2 hr, cisplatin 20 μM 24 hr
  cisplatin-induced puncta formation: blocked
Control and GFRα1-overexpressing cells, 3-MA pretreatment 2 hr
  puncta formation: blocked

## N.N.[Cl][Pt][Cl] [cisplatin, Cis-Diamineplatinum(II) dichloride]
GFRα1-deficient MG-63 cells
  LC3 puncta formation: no change
MG-63 cells transfected with control shRNA
  LC3 puncta formation: significantly increased

B1: GDNF: glial cell line-derived neurotrophic factor, the major ligand of GFRα1 (protein, UniProt P39905 78-211, looked up)
Glial cell line-derived …: SPDKQMAVLPRRERNRQAAAANPENSRGKGRRGQRGKNRGCVLTAIHLNVTDLGLGYETKEELIFRYCSGSCDAAETTYDKILKNLSRNRRLVSDKVGQACCRPIAFDDDLSFLDDNLVYHILRKHSAKRCGCI
Control and GFRα1-overexpressing MG-63 cells, GDNF
  GFRα1-mediated autophagy after cisplatin treatment: did not have an effect
Control or GFRα1-overexpressing cells, GDNF 24 h
  LC3 puncta formation on addition of GDNF: no significant effect
